Laboratory results published in patent US20260183275A1, “SUBSTITUTED QUINOLONE COMPOUNDS USEFUL AS INHIBITORS OF TLR9” (Bristol-Myers Squibb Company, priority 2022, published 2026).

Experiments:
Assay type in all cases: cell-based
human TLR8 = biological target: T1, human TLR8 (Homo sapiens, UniProt Q9NR97); assay: TLR8 inhibition reporter assay (HEK-Blue cells, SEAP reporter); conditions: HEK-Blue cells overexpressing human TLR8; stimulated with R848 15.9 μM; SEAP read after 22 hour; dose range 0.05 nM-50 μM
T1 construct: host or cells: HEK-Blue cells
T1 sequence (Q9NR97 27-1041): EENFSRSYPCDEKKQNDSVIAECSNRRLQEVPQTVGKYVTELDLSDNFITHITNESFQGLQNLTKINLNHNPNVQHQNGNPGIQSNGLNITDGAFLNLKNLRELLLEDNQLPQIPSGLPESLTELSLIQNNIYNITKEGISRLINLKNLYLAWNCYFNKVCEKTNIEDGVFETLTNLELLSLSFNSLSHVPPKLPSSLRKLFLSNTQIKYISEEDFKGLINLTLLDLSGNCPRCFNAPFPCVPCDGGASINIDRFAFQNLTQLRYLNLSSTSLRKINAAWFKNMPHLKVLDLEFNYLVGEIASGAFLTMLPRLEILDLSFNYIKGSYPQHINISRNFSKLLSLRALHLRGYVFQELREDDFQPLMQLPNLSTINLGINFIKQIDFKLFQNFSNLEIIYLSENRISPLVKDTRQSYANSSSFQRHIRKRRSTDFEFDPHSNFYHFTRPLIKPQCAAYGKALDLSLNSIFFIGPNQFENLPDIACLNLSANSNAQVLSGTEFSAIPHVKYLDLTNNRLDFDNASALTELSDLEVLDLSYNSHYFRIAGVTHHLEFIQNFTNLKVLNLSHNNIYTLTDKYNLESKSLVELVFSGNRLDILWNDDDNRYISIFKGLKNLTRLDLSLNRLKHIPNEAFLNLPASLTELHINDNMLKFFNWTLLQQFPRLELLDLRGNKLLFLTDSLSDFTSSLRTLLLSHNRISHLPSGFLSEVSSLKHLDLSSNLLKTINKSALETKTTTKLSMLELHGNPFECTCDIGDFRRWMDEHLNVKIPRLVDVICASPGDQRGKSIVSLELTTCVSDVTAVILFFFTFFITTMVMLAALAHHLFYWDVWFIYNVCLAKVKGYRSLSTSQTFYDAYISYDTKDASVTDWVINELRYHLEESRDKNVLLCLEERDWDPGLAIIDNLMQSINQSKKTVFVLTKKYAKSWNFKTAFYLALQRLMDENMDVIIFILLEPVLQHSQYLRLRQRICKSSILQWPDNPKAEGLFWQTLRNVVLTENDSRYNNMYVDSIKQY
In short: (§1)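 HEK-Blue cells with NF-κB/AP-1-driven SEAP pre-treated 30 min with compounds (0.05 nM-50 μM), then stimulated with gardiquimod 7.5 μM (TLR7), R848 15.9 μM (TLR8) or ODN2006 5 nM (TLR9). SEAP read after 22 h at 37° C; % inhibition relative to agonist+DMSO and reference-inhibitor wells.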

human TLR9 = biological target: T2, human TLR9 (Homo sapiens, UniProt Q9NR96); assay: TLR9 inhibition reporter assay (HEK-Blue cells, SEAP reporter); conditions: HEK-Blue cells overexpressing human TLR9; stimulated with ODN2006 5 nM; SEAP read after 22 hour; dose range 0.05 nM-50 μM
T2 construct: host or cells: HEK-Blue cells
T2 sequence (Q9NR96 26-1032): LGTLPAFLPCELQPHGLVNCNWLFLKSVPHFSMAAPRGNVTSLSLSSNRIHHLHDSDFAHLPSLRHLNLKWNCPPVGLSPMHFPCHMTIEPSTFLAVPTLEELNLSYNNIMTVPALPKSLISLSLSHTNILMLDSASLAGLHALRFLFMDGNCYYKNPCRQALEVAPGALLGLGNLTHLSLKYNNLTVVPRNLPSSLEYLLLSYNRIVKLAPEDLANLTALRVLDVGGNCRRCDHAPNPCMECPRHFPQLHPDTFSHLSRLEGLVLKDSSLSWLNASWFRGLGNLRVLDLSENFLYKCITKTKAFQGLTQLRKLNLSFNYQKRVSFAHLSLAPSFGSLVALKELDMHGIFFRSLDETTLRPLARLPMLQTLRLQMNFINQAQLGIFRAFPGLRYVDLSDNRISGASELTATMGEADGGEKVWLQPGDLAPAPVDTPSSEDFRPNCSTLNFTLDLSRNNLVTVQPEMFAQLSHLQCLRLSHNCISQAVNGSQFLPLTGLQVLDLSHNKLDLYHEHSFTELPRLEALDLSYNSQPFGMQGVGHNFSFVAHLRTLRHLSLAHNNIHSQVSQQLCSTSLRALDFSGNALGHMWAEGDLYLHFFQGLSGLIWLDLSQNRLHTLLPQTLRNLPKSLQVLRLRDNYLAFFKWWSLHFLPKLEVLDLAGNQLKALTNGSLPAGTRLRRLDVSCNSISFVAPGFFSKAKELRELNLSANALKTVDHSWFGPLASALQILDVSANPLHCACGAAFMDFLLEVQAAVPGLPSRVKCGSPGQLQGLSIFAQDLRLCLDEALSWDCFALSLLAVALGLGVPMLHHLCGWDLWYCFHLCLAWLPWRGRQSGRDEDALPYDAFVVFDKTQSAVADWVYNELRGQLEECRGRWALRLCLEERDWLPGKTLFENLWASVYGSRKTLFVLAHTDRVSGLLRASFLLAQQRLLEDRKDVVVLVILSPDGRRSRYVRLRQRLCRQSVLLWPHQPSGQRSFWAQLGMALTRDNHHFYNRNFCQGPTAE
In short: as §1

human TLR7 = biological target: T3, human TLR7 (Homo sapiens, UniProt Q9NYK1); assay: TLR7 inhibition reporter assay (HEK-Blue cells, SEAP reporter); conditions: HEK-Blue cells overexpressing human TLR7; stimulated with gardiquimod 7.5 μM; SEAP read after 22 hour; dose range 0.05 nM-50 μM
T3 construct: host or cells: HEK-Blue cells
T3 sequence (Q9NYK1 27-1049): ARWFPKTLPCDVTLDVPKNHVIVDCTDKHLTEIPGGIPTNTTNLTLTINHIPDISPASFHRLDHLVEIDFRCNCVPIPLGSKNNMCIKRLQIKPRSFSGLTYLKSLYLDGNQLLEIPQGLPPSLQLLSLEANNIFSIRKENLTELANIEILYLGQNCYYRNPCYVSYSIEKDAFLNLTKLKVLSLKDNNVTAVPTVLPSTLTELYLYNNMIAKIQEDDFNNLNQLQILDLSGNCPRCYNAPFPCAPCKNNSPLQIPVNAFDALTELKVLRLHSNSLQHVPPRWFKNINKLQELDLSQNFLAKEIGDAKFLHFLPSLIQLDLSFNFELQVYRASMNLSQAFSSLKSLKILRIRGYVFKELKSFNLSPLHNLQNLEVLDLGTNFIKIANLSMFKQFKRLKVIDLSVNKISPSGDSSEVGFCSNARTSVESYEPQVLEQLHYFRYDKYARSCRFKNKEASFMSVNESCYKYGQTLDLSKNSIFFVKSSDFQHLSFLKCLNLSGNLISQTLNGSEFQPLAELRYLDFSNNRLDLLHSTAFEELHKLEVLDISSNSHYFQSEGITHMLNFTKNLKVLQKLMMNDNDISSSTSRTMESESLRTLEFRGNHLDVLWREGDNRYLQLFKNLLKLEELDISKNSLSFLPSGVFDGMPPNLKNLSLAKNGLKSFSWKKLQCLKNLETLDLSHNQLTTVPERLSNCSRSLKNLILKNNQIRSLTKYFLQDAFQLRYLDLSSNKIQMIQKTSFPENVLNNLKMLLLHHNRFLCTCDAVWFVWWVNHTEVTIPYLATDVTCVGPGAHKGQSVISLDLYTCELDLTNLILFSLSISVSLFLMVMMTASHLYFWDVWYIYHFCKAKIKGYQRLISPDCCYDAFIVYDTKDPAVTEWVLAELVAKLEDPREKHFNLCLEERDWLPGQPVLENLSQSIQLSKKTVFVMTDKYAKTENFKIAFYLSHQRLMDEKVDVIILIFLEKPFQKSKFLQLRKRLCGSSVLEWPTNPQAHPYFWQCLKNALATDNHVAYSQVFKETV
In short: as §1

IC50 (human TLR8)	IC50 (human TLR9)	IC50 (human TLR7)	Structure (SMILES)
0.083 µM	0.615 µM	1.22 µM	CC(=O)Nc1ccc(-c2cc3cc(-c4ccc(N5CCN(C(C)C)CC5)cc4)ccc3n(C)c2=O)cc1 [Example 57, N-[4-(1-methyl-2-oxo-6-{4-[4-(propan-2-yl)piperazin-1-yl]phenyl}-1,2-dihydroquinolin-3-yl)phenyl]acetamide]
1.39 µM	0.538 µM	32.6 µM	CC(C)N1CCN(c2ccc(-c3ccc4c(c3)cc(-c3ccccc3)c(=O)n4C)cc2)CC1 [Example 58, 1-methyl-3-phenyl-6-{4-[4-(propan-2-yl)piperazin-1-yl]phenyl}-1,2-dihydroquinolin-2-one]
≥ 50 µM	0.736 µM	≥ 50 µM	CC(C)N1CCN(c2ccc(-c3ccc4[nH]c(=O)c(-c5ccc(C(=O)N(C)C)cc5)cc4c3)cc2)CC1 [Example 60, N,N-dimethyl-4-(2-oxo-6-{4-[4-(propan-2-yl)piperazin-1-yl]phenyl}-1,2-dihydroquinolin-3-yl)benzamide]
≥ 50 µM	1.64 µM	≥ 50 µM	CC(C)N1CCN(c2ccc(-c3ccc4[nH]c(=O)c(-c5ccc(N6CC[C@@H](O)C6)cc5)cc4c3)cc2)CC1 [Example 61, 3-{4-[(3R)-3-hydroxypyrrolidin-1-yl]phenyl}-6-{4-[4-(propan-2-yl)piperazin-1-yl]phenyl}-1,2-dihydroquinolin-2-one]
≥ 50 µM	1.76 µM	≥ 50 µM	CC(C)N1CCN(c2ccc(-c3ccc4[nH]c(=O)c(-c5ccc(C(=O)O)cc5)cc4c3)cc2)CC1 [Example 62, 4-(2-oxo-6-{4-[4-(propan-2-yl)piperazin-1-yl]phenyl}-1,2-dihydroquinolin-3-yl)benzoic acid]
11 µM	0.027 µM	2.81 µM	CCc1c(-c2ccc(OC)c(OC)c2)c(=O)[nH]c2ccc(C3CCN(C4CCN(C(C)C)CC4)CC3)cc12 [Example 63, 3-(3,4-dimethoxyphenyl)-4-ethyl-6-[1′-(propan-2-yl)-[1,4′-bipiperidine]-4-yl]-1,2-dihydroquinolin-2-one]
≥ 50 µM	0.03 µM	1.48 µM	CC(C)N1CCC(N2CCC(c3ccc4[nH]c(=O)c(-c5ccccc5)cc4c3)CC2)CC1 [Example 64, 3-phenyl-6-[1′-(propan-2-yl)-[1,4′-bipiperidine]-4-yl]-1,2-dihydroquinolin-2-one]
4.87 µM	0.055 µM	0.342 µM	CC(C)N1CCC(c2ccc(-c3ccc4[nH]c(=O)c(-c5ccc(S(N)(=O)=O)cc5)cc4c3)cc2)CC1 [Example 65, 4-(2-oxo-6-{4-[1-(propan-2-yl)piperidin-4-yl]phenyl}-1,2-dihydroquinolin-3-yl)benzene-1-sulfonamide]
≥ 50 µM	0.057 µM	9.97 µM	CCc1c(-c2ccc(S(C)(=O)=O)cc2)c(=O)[nH]c2ccc(C3CCN(C4CCN(C(C)C)CC4)CC3)cc12 [Example 66, 4-ethyl-3-(4-methanesulfonylphenyl)-6-[1′-(propan-2-yl)-[1,4′-bipiperidine]-4-yl]-1,2-dihydroquinolin-2-one]
≥ 50 µM	0.067 µM	0.817 µM	CC(C)N1CCC(c2ccc(-c3ccc4[nH]c(=O)c(-c5cccc(NS(C)(=O)=O)c5)cc4c3)cc2)CC1 [Example 67, N-[3-(2-oxo-6-{4-[1-(propan-2-yl)piperidin-4-yl]phenyl}-1,2-dihydroquinolin-3-yl)phenyl]methanesulfonamide]
0.475 µM	0.07 µM	7.96 µM	CC(C)N1CCC(c2ccc(-c3ccc4c(c3)cc(-c3ccc(S(C)(=O)=O)cc3)c(=O)n4C)cc2)CC1 [Example 68, 3-(4-methanesulfonylphenyl)-1-methyl-6-{4-[1-(propan-2-yl)piperidin-4-yl]phenyl}-1,2-dihydroquinolin-2-one]
17.6 µM	0.075 µM	0.538 µM	CC(C)N1CCC(c2ccc(-c3ccc4[nH]c(=O)c(-c5cccc(C#N)c5)cc4c3)cc2)CC1 [Example 69, 3-(2-oxo-6-{4-[1-(propan-2-yl)piperidin-4-yl]phenyl}-1,2-dihydroquinolin-3-yl)benzonitrile]
≥ 50 µM	0.078 µM	0.204 µM	CN1CCC(c2ccc(-c3ccc4[nH]c(=O)c(-c5ccc(NS(C)(=O)=O)cc5)cc4c3)cc2)CC1 [Example 70, N-(4-{6-[4-(1-methylpiperidin-4-yl)phenyl]-2-oxo-1,2-dihydroquinolin-3-yl}phenyl)methanesulfonamide]
9.28 µM	0.14 µM	29.9 µM	CC(C)N1CCC(c2ccc(-c3ccc4[nH]c(=O)c(-c5ccc(S(C)(=O)=O)cc5)cc4c3)cc2)CC1 [Example 71, 3-(4-methanesulfonylphenyl)-6-{4-[1-(propan-2-yl)piperidin-4-yl]phenyl}-1,2-dihydroquinolin-2-one]
